These results are taken from US10239878B2, “Macrocyclic ligands with pendant chelating moieties and complexes thereof” (LUMIPHORE, INC., priority 2016, dated 2019).

Data set [1] is described as follows: Europium titration experiments for determining extinction coefficients. Format: physicochemical. Particulars: for extinction coefficient: UV-vis titration with europium chloride, TBS buffer pH 7.6, at lambda max; for lambda max: UV-vis titration, TBS buffer; for ε at λmax: by europium titration, TBS buffer pH 7.6; for ε at λmax (starred values): assumed equal to those measured by titration for 16 · Eu or 43 · Eu. The method, then: In order to determine accurate extinction coefficients for 16 and 16⋅Eu, titration experiments using europium chloride as the titrant were performed. Europium chloride hexahydrate (13.22 mg, 0.03608 mmol) was dissolved into 5 mM citrate buffer (pH=4) using a 100 mL volumetric flask to give a 0.3608 mM europium chloride solution, which was then titrated into a 0.5 mL solution of 16 in TBS buffer (Tris-buffered saline, 50 mM Tris, 150 mM NaCl, pH=7.6) using 5 μL aliquots. The UV-vis spectra were adjusted for the increase in solvent volume due to each injection. The results of the UV-vis titration are plotted in FIG. 3.
The volume of europium chloride corresponds to 16.70 nmol of europium, meaning the starting concentration of ligand 16 was 33.40 μM. […] These absorbance and concentration values yield extinction coefficients of 13,600 M^−1 cm^−1 and 14,300 M^−1 cm^−1 for the ligand 16 and the complex 16⋅Eu respectively.
In order to determine accurate extinction coefficients for 43 and 43⋅Eu, titration experiments using europium chloride as the titrant were performed. Europium chloride hexahydrate (47.58 mg, 0.1299 mmol) was dissolved into 50 mM citrate buffer (pH=4) using a 10 mL volumetric flask to give a 12.99 mM europium chloride solution, which was then transferred to a 100 mL volumetric flask and diluted 1:10 with water. The resulting 1.299 mM europium chloride solution (in 5 mM citrate buffer) was then titrated into a 1 mL solution of 43 in TBS buffer using 5 μL aliquots. The UV-vis spectra were adjusted for the increase in solvent volume due to each injection. The results of the UV-vis titration are plotted in FIG. 4.
The volume of europium chloride corresponds to 47.46 nmol of europium, meaning the starting concentration of ligand 43 was 47.46 μM. […] These absorbance and concentration values yield extinction coefficients of 13,000 M^−1 cm^−1 and 12,800 M^−1 cm^−1 for the ligand and complex respectively.
Titration of ligand 43 was also performed by luminescence (FIG. 5), monitoring the europium signal at 612 nm upon photoexcitation of the solution at 340 nm. The ligand solution used for the UV-vis titration of 43 mentioned above was first diluted 1:10 in TBS buffer. Similarly, the 1.299 mM stock europium solution was separately diluted 1:10 with water. […] The 32.99 μL equivalence point gives extinction coefficients of 14,400 M^−1 cm^−1 at 383 nm and 14,200 M^−1 cm^−1 at 357 nm for 43 and 43⋅Eu respectively. Averaging the values from both UV-vis and luminescence titration experiments of 43 yields extinction coefficients of 13,700 M^−1 cm^−1 at 383 nm and 13,500 M^−1 cm^−1 at 357 nm for 43 and 43⋅Eu respectively.

A short description of data set [2]: Photophysical characterization of Eu complexes (UV-vis absorption, quantum yield, lifetime). Particulars: for ε260/ε at λmax / ε280/ε at λmax / λmax / Φtotal at 365 nm excitation: TBS buffer; for ε260/ε at λmax / ε280/ε at λmax / λmax: pH 7.6; for Φtotal at 365 nm excitation: quinine sulfate as quantum yield standard; for Lifetime: luminescence, HPLC purified Eu complexes. Format: physicochemical. As to the method:
The europium complexes of ligands 16, 29, 33, 40, and 43 were prepared by separately dissolving each ligand (2 mg) into methanol (200 μL). Excess europium chloride hexahydrate (˜5 equivalents) was dissolved in methanol (200 μL) and the full volume was added to each of the ligand solutions. The solvent was removed, and the residue was dissolved into DMF (50 μL). The europium complexes were then purified by semi-prep HPLC on an Agilent 1260 Infinity instrument using an Eclipse XDB-C18 column (5 μm, 9.4×250 mm). The mobile phase was 10 to 30% acetonitrile in water containing 0.1% trifluoroacetic acid. The volatiles were removed from the HPLC eluents under vacuum, and the residues were separately dissolved into methanol (500 μL) to give methanolic stock solutions of each europium complex with greater than 98% purity. A few drops of these methanolic solutions were evaporated to dryness, and then the residue was dissolved into TBS buffer at a concentration of ca. 3 μM to make aqueous stock solutions (20 mL) with an absorbance of 0.05 (1 cm path length) at 365 nm. Five dilutions (1/6, 2/6, 3/6, 4/6, and 5/6) were made from these aqueous stock solutions to yield six samples with evenly spaced concentrations (3 mL volume each). Quinine sulfate dissolved in 0.05 M sulfuric acid was similarly diluted to a final absorbance of 0.05 at 365 nm, and this solution was similarly (1/6, 2/6, 3/6, 4/6, and 5/6) diluted to afford six quinine sulfate reference samples of evenly spaced concentration. Quinine sulfate in 0.05 M sulfuric acid was used as the quantum yield standard (Φ=0.508). By measuring the absorbance and luminescence of these dilute solutions, the quantum yields of the new Eu complexes were determined. A 5 cm path-length quartz cell was used to measure the absorbance of these dilute solutions in order to improve the UV-vis signal-to-noise. Steady state photoluminescence measurements were collected in a 1 cm fluorescence cuvette at 365 nm excitation wavelength, 1 nm resolution, 10 nm excitation slit width, 1 nm emission slit width, and 0.2 sec integration time on an instrument that has been described elsewhere (D'Aléo, A.; Moore, E. G.; Szigethy, G.; Xu, J.; Raymond, K. N. Inorg. Chem. 2009, 48, 9316.). Absorption spectra were measured at 1 nm resolution, and the absorbance of each sample was taken as the average absorbance measured from 360-370 nm to reflect the 10 nm excitation slit width used for luminescence measurements. The data derived from these experiments, and from the titration experiments in example 11 are tabulated below.

Data set [3] can be described thus: 250 mM DTPA competition experiments (kinetic stability of Eu complexes). Format: physicochemical. An excerpt:
From these experiments, it is clear that 43⋅Eu is remarkably stable to a wide range of competitive metal ions and chelators. The competitor concentrations mentioned above are a good way to assess the kinetic stability of the complex in various assay conditions. DTPA is an exceptionally good ligand for lanthanide ions, and thus it is not typically used in practical assays. However, DTPA competition offers an excellent way to benchmark the kinetic stability of the complexes reported here. […] In order to compare the kinetic stability of the complexes reported here, a 750 mM stock solution (25 mL) of DTPA was prepared by dissolving DTPA (7.375 g, 18.75 mmol) into water (20 mL) containing potassium hydroxide (5.26 g, 93.75 mmol). The pH of the DTPA solution was adjusted to pH=7.6 by addition of concentrated hydrochloric acid, and then the solution was diluted to a final volume of 25 mL to give a 750 mM DTPA stock solution at pH=7.6. HPLC purified europium complexes of 16, 29, 33, 40, and 43 were separately diluted to 11 μM in TBS buffer, pH=7.6. For each DTPA competition experiment, 1 mL of the 750 mM DTPA solution was added to 2 mL of the 11 μM europium complex solution. The luminescence at 612 nm (365 nm excitation) was monitored for these five separate solutions containing 250 mM DTPA and 7.1 μM of each europium complex as a function of time.

For data set [4] the following is noted: Thorium(IV) complexes; ligand denticity bi- to deca-dentate; cited from earlier work.
The conditions of data set [5]: in 0.05 M sulfuric acid; cited from earlier work.

Where a name gives a salt, the structure may show the parent alone. Marks after values point to notes of the source that are not given here.

With `O=C1NCCCN(C(=O)c2cccc(=O)n2[O-])CCCCN(C(=O)c2cccc(=O)n2[O-])CCCNC(=O)c2ccc(n([O-])c2=O)C(=O)NCCNC(=O)c2ccc1c(=O)n2[O-].[Eu+3]` [16⋅Eu], in data set [1], the extinction coefficient is 14,300 M^−1 cm^−1, the lambda max amounted to 361 nm and the “ε at λmax” value is 14,300 M^−1cm^−1. Further, in data set [2], the “ε260/ε at λmax” value is reported as 1.40, the “ε280/ε at λmax” value is reported as 1.12, the λmax was 361 nm and the “Φtotal at 365 nm excitation” value is given as 30.9%. Moreover, in data set [2], the Lifetime was found to be 716 μs.

Consider `NCCCC[C@H]1CNC(=O)c2ccc(c(=O)n2[O-])C(=O)NCCCN(C(=O)c2cccc(=O)n2[O-])CCCCN(C(=O)c2cccc(=O)n2[O-])CCCNC(=O)c2ccc(n([O-])c2=O)C(=O)N1.[Eu+3]` [29⋅Eu], for which the “ε at λmax (starred values)” value in data set [1] is 14,300* M^−1cm^−1. For the same molecule, in data set [2], the “ε260/ε at λmax” value worked out at 1.42, the “ε280/ε at λmax” value is 1.18, the λmax was 363 nm and the “Φtotal at 365 nm excitation” value worked out at 29.8%. The Lifetime in data set [2] was determined as 716 μs. In data set [3], the “kinetic stability relative to 43⋅Eu to challenge by DTPA” value is recorded as “at least an order of magnitude”; the “kinetic stability relative to m-tetrahydrofurandiamine-based macrocycles (40⋅Eu and 43⋅Eu)” value is roughly 5 ×.

As to `NCCOCCNC(=O)C1CCCN(C(=O)c2cccc(=O)n2[O-])CCCNC(=O)c2ccc(n([O-])c2=O)C(=O)NCCNC(=O)c2ccc(c(=O)n2[O-])C(=O)NCCCN1C(=O)c1cccc(=O)n1[O-].[Eu+3]` (stereo not drawn) [33⋅Eu], the “ε at λmax (starred values)” value in data set [1] is 14,300* M^−1cm^−1. In addition, in data set [2], the “ε260/ε at λmax” value is 1.40, the “ε280/ε at λmax” value worked out at 1.14, the λmax is 363 nm and the “Φtotal at 365 nm excitation” value came to 30.0%. Further, the Lifetime in data set [2] was 723 μs. For the same molecule, in data set [3], the “kinetic stability relative to m-tetrahydrofurandiamine-based macrocycles (40⋅Eu and 43⋅Eu)” value is recorded as roughly 5 ×. For the same molecule, in data set [3] (33⋅Eu versus 16⋅Eu, 43⋅Eu versus 40⋅Eu), the “reduction in kinetic stability upon introduction of the spermine-based sidearm” value is recorded as “two fold”.

Take `O=C1NCCCN(C(=O)c2cccc(=O)n2[O-])CCCCN(C(=O)c2cccc(=O)n2[O-])CCCNC(=O)c2ccc(n([O-])c2=O)C(=O)N[C@@H]2COC[C@@H]2NC(=O)c2ccc1c(=O)n2[O-].[Eu+3]` [40⋅Eu]: the “ε at λmax (starred values)” value in data set [1] was 13,500* M^−1cm^−1. Moreover, in data set [2], the “ε260/ε at λmax” value stood at 1.51, the “ε280/ε at λmax” value turned out to be 1.19, the λmax stood at 357 nm and the “Φtotal at 365 nm excitation” value turned out to be 28.2%. The molecule further yielded a Lifetime in data set [2] of 729 μs.

As for `CC(=O)CC(C)=O` [Acac], the “Log K1” value in data set [4] was 7.85.

Turning to `O=C1NCCCN(C(=O)c2cccc(=O)n2O)CCCCN(C(=O)c2cccc(=O)n2O)CCCNC(=O)c2ccc(n(O)c2=O)C(=O)NCCNC(=O)c2ccc1c(=O)n2O` [Compound 16], in data set [1], the extinction coefficient was 13,600 M^−1 cm^−1, the lambda max worked out at 382 nm and the “ε at λmax” value is recorded as 13,600 M^−1cm^−1. Further, in data set [2], the “ε260/ε at λmax” value was determined as 1.98, the “ε280/ε at λmax” value was determined as 1.27 and the λmax worked out at 382 nm.

With `O=C(O)CN(CCN(CC(=O)O)CC(=O)O)CC(=O)O` [EDTA], the “Log K1” value in data set [4] is on record as 25.3.

Take `O=C(O)CN(CCO)CCN(CC(=O)O)CC(=O)O` [HEDTA]: the “Log K1” value in data set [4] is recorded as 18.5.

Consider `O=C(O)CN(CC(=O)O)CC(=O)O` [NTA], for which the “Log K1” value in data set [4] is listed as 16.9.

Consider `C=C[C@H]1C[N@@]2CC[C@H]1C[C@H]2[C@H](O)c1ccnc2ccc(OC)cc12` [Quinine sulfate], for which the “quantum yield standard Φ” value in data set [5] was 0.508.

Consider `O=C(O)CN(CCN(CCN(CC(=O)O)CC(=O)O)CC(=O)O)CCN(CC(=O)O)CC(=O)O` [TTHA], for which the “Log K1” value in data set [4] is recorded as 31.9.
